Laboratory results reported in ChEMBL document CHEMBL3875166, “Synthesis and biological evaluation of new 6-hydroxypyridazinone benzisoxazoles: Potential multi-receptor-targeting atypical antipsychotics” (Eur J Med Chem, 2016).

How the values were obtained:
[1] = molecular target: 5-hydroxytryptamine receptor 2A (Rattus norvegicus, UniProt P14842); assay: Displacement of [3H] ketanserin from 5-HT2A receptor in Sprague-Dawley rat cerebral cortex incubated for 30 mins by liquid scintillation counting analysis
5-hydroxytryptamine receptor 2A, sequence (P14842 whole entry): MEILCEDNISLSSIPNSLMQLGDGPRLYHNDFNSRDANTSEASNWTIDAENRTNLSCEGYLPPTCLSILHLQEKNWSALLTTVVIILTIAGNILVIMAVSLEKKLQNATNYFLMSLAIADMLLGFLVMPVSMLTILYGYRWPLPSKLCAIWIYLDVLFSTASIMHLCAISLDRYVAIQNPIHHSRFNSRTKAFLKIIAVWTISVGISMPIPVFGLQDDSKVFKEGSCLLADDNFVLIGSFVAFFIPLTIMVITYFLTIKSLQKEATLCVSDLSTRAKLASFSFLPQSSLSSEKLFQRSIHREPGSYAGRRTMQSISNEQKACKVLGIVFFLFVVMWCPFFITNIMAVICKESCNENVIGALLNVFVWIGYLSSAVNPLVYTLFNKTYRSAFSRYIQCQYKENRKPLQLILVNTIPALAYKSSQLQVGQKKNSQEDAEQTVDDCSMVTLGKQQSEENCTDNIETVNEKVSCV

[2] = molecular target: D(2) dopamine receptor (Rattus norvegicus, UniProt P61169); assay: Displacement of [3H]spiperone from dopamine D2 receptor in Sprague-Dawley rat striatum incubated for 30 mins by liquid scintillation counting analysis
D(2) dopamine receptor, sequence (P61169 whole entry): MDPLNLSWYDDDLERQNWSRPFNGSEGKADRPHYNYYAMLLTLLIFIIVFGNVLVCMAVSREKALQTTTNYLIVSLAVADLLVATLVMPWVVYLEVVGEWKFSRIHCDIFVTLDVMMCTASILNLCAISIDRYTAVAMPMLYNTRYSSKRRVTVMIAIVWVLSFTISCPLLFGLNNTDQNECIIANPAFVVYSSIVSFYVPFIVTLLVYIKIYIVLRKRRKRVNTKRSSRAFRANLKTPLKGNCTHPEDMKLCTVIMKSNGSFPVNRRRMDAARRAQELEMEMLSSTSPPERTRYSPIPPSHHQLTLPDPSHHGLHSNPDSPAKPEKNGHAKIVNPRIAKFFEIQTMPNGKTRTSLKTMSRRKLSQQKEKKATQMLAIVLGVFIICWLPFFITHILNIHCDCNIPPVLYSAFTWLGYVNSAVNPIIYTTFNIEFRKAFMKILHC

[3] = molecular target: T1, 5-hydroxytryptamine receptor 1A (Rattus norvegicus, UniProt P19327); assay: Displacement of [3H]8-OH-DPAT from 5-HT1A receptor in Sprague-Dawley rat cerebral cortex incubated for 30 mins by liquid scintillation counting analysis
T1 sequence (P19327 whole entry): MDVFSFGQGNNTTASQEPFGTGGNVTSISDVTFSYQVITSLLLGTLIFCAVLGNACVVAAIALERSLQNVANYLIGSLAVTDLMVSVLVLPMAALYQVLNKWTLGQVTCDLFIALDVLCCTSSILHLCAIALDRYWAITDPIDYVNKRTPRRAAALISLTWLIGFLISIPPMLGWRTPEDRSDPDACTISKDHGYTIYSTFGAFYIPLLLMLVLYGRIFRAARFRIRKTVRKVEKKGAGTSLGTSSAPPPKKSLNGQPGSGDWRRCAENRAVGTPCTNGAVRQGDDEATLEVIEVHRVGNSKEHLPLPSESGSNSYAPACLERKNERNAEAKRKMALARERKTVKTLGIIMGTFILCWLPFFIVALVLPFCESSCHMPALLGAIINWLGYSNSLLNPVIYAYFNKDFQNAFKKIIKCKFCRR

| SMILES | Ki [1] | Ki [2] | Ki [3] |
| --- | --- | --- | --- |
| O=c1ccc(OCCCN2CCC(c3noc4cc(F)ccc34)CC2)nn1-c1ccc(Cl)cc1Cl | 0.0004 µM | 0.0004 µM | 0.191 µM |
| O=c1ccc(OCCCN2CCN(c3nsc4ccccc34)CC2)nn1-c1ccc(Cl)c(Cl)c1 | 0.0751 µM | 0.595 µM | 0.898 µM |
| O=c1ccc(OCCCN2CCC(c3noc4cc(F)ccc34)CC2)nn1-c1ccccc1 | 0.131 µM | 0.0455 µM | 0.0613 µM |
| O=c1ccc(OCCCN2CCN(c3ncccn3)CC2)nn1-c1ccc(Cl)c(Cl)c1 | 1.14 µM | 0.914 µM | 0.167 µM |
| O=c1ccc(OCCCN2CCC(c3noc4cc(F)ccc34)CC2)nn1-c1ccc2ccccc2c1 | 0.0213 µM | 0.0162 µM | 0.0159 µM |
| O=c1ccc(OCCCN2CCC(c3noc4cc(F)ccc34)CC2)nn1-c1cc(F)cc(F)c1 | 0.0023 µM | 0.0354 µM | 0.0381 µM |
| Cc1ccc(-n2nc(OCCCN3CCC(c4noc5cc(F)ccc45)CC3)ccc2=O)cc1 | 0.0554 µM | 0.0331 µM | 0.0342 µM |
| O=c1ccc(OCCCN2CCC(c3noc4cc(F)ccc34)CC2)nn1-c1cccc(Cl)c1 | 0.006 µM | 0.0411 µM | 0.183 µM |
| O=c1ccc(OCCCN2CCN(c3csc4ccccc34)CC2)nn1-c1ccc(Cl)c(Cl)c1 | 0.0812 µM | 0.648 µM | 0.984 µM |
| O=c1ccc(OCCCN2CCN(c3ccc(F)cc3)CC2)nn1-c1ccc(Cl)c(Cl)c1 | 0.0645 µM | 0.953 µM | 0.0554 µM |
| O=C(c1ccc(F)cc1)C1CCN(CCCOc2ccc(=O)n(-c3ccc(Cl)c(Cl)c3)n2)CC1 | 0.0138 µM | 0.179 µM | – |
| Cc1cccc(N2CCN(CCCOc3ccc(=O)n(-c4ccc(Cl)c(Cl)c4)n3)CC2)c1C | 0.0812 µM | > 10 µM | 5.53 µM |
| O=c1c2ccccc2c(OCCCN2CCC(c3noc4cc(F)ccc34)CC2)nn1-c1ccc(Cl)c(Cl)c1 | 0.0839 µM | 0.0437 µM | 0.333 µM |
| O=c1ccc(OCCCN2CCN(Cc3ccccc3)CC2)nn1-c1ccc(Cl)c(Cl)c1 | 0.595 µM | > 10 µM | 0.213 µM |
| O=c1ccc(OCCCN2CCC(c3noc4cc(F)ccc34)CC2)nn1-c1ccc(F)cc1 | 0.0259 µM | 0.0108 µM | 0.0528 µM |
| O=c1ccc(OCCCN2CCN(c3ccccc3)CC2)nn1-c1ccc(Cl)c(Cl)c1 | 0.359 µM | 1.32 µM | 0.0481 µM |
| O=c1ccc(OCCCN2CCN(c3ccccc3F)CC2)nn1-c1ccc(Cl)c(Cl)c1 | 0.0695 µM | 1.2 µM | 0.0565 µM |
| O=c1ccc(OCCCN2CCC(c3noc4cc(F)ccc34)CC2)nn1-c1ccccc1Cl | 0.0103 µM | 0.0385 µM | 0.078 µM |
| O=c1ccc(OCCCN2CCC(c3noc4cc(F)ccc34)CC2)nn1-c1cc(Cl)cc(Cl)c1 | 0.0093 µM | 0.0381 µM | 0.129 µM |

| SMILES | Ki [1] | Ki [2] | Ki [3] |
| --- | --- | --- | --- |
| Cc1c(OCCCN2CCC(c3noc4cc(F)ccc34)CC2)nn(-c2ccc(Cl)c(Cl)c2)c(=O)c1C | 0.0913 µM | 0.0383 µM | 0.121 µM |
| O=c1ccc(OCCCN2CCN(c3cccc(C(F)(F)F)c3)CC2)nn1-c1ccc(Cl)c(Cl)c1 | 0.0992 µM | 0.916 µM | 0.103 µM |
| O=c1ccc(OCCCN2CCC(c3c[nH]c4ccccc34)CC2)nn1-c1ccc(Cl)c(Cl)c1 | 0.0745 µM | 0.499 µM | 1.25 µM |
| O=c1c2c(c(OCCCN3CCC(c4noc5cc(F)ccc45)CC3)nn1-c1ccc(Cl)c(Cl)c1)CCCC2 | 0.0896 µM | 0.0418 µM | 0.224 µM |
| O=c1ccc(OCCCCN2CCC(c3noc4cc(F)ccc34)CC2)nn1-c1ccc(Cl)c(Cl)c1 | 0.0347 µM | 0.0267 µM | 0.117 µM |
| O=c1ccc(OCCCN2CCC(c3noc4cc(F)ccc34)CC2)nn1-c1ccc(Cl)c(Cl)c1 | 0.0217 µM | 0.0078 µM | 0.025 µM |
| O=c1ccc(OCCCN2CCC(c3noc4cc(F)ccc34)CC2)nn1-c1ccc(Cl)cc1 | 0.0123 µM | 0.0281 µM | 0.089 µM |
| COc1ccccc1N1CCN(CCCOc2ccc(=O)n(-c3ccc(Cl)c(Cl)c3)n2)CC1 | 0.242 µM | 0.524 µM | 0.0562 µM |
| NC(=O)c1ccc2occ(N3CCN(CCCOc4ccc(=O)n(-c5ccc(Cl)c(Cl)c5)n4)CC3)c2c1 | 0.605 µM | 0.379 µM | 0.0648 µM |
| O=c1ccc(OCCCN2CCC(c3noc4cc(F)ccc34)CC2)nn1-c1ccc(F)c(Cl)c1 | 0.0123 µM | 0.0453 µM | 0.089 µM |
| O=c1ccc(OCCCCCN2CCC(c3noc4cc(F)ccc34)CC2)nn1-c1ccc(Cl)c(Cl)c1 | 0.0253 µM | 0.0403 µM | 0.326 µM |
| O=c1ccc(OCCCN2CCN(c3cccc(Cl)c3Cl)CC2)nn1-c1ccc(Cl)c(Cl)c1 | 0.627 µM | 0.777 µM | 0.624 µM |
| COc1ccc(N2CCN(CCCOc3ccc(=O)n(-c4ccc(Cl)c(Cl)c4)n3)CC2)cc1 | 0.543 µM | 0.845 µM | 0.0573 µM |
| O=c1ccc(OCCCN2CCN(c3ccccc3Cl)CC2)nn1-c1ccc(Cl)c(Cl)c1 | 0.12 µM | 0.808 µM | 1.11 µM |
| O=c1ccc(OCCCN2CCC(c3noc4cc(F)ccc34)CC2)nn1-c1ccc(F)cc1F | 0.0005 µM | 0.174 µM | 0.0884 µM |
| O=c1ccc(OCCCN2CCN(c3ccccn3)CC2)nn1-c1ccc(Cl)c(Cl)c1 | 0.143 µM | > 10 µM | 0.157 µM |
| O=c1ccc(OCCCN2CCC(c3nc4ccccc4s3)CC2)nn1-c1ccc(Cl)c(Cl)c1 | 0.107 µM | > 10 µM | > 10 µM |
| O=c1ccc(OCCCN2CCC(c3noc4cc(F)ccc34)CC2)nn1-c1ccc(F)c(F)c1 | 0.0032 µM | 0.0385 µM | 0.0435 µM |
